Common to all, as to type: cell-based
In one assay the target is T1, MR (Homo sapiens, UniProt P08235).
T1 construct: expressed in transfected cells; host or cells: 293T cells
T1 sequence (P08235 672-984): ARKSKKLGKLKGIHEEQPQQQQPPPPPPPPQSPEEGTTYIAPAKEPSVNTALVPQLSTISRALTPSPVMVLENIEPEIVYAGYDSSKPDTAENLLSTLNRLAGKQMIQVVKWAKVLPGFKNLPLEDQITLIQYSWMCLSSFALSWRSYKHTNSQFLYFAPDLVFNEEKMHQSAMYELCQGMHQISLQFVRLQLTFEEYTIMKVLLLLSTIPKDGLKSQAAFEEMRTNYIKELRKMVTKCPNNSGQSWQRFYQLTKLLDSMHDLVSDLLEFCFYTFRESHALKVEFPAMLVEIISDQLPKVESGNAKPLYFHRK
The experiment in a line: Functional assay of mineralocorticoid receptor antagonism (mammalian two hybrid luciferase reporter, 293T cells, aldosterone-stimulated). The following applies: antagonism of MR trans-activation induced by 0.4 nM aldosterone. Here is the method:
The MR antagonist activity of the compounds is determined in a mammalian two hybrid reporter system. The N-terminus of MR (MR-NT, sequence coding amino acid 1-597) is fused to the activation domain of the VP16 gene. The ligand binding domain of MR (MR-LBD, sequence encoding amino acid 672-984) is fused to the DNA binding domain of the yeast Gal4 gene. The MR gene is cloned from a human kidney cDNA library with PCR.
The assay is performed in 384 well plates. Briefly, 293T cells (ATCC) are transfected with expression vectors for Gal-4-MR-LBD and VP16-MR NT, and a luciferase reporter vector containing Gal4 binding sequence (pG5-Luc). Cells are plated in 384 well plates immediately after transfection (approximately 3×10^4 cells/well in 50 μl medium). The medium is supplemented with 3% charcoal-dextran treated fetal bovine serum (Hyclone). Twenty four hours after transfection, compounds prepared in DMSO are transferred to the cells. The cells are then stimulated with 0.4 nM final concentration of aldosterone (Acros) and incubated at 37° C. for another 24 hours before the luciferase activity is assayed with 20 μl of Bright-Glo (Promega) using a luminometer (CLIPR). The expression of luciferase is used as an indicator of aldosterone-induced MR trans-activation. Each compound is tested in duplicates with 12-concentration titration. IC50 values (defined as the concentration of test compound required to antagonize 50% of aldosterone-induced MR activity) are determined from the dose-response curve.
(In a reporter assay the amount or activity of a reporter protein is the signal.)

A further assay addresses T2, GR (Homo sapiens, UniProt P04150).
T2 construct: expressed in transfected cells; host or cells: COS-7 cells
T2 sequence (P04150 541-777): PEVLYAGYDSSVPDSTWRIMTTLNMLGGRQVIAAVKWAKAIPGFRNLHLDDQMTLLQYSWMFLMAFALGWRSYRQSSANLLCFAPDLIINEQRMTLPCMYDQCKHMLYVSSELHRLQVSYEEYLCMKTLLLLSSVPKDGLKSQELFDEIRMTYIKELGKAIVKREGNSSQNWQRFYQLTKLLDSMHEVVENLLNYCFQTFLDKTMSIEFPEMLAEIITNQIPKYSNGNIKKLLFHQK
The experiment in a line: Functional assay of glucocorticoid receptor antagonism (Gal4-GR-LBD luciferase reporter, COS-7 cells, dexamethasone-stimulated). The following applies: antagonism of GR trans-activation induced by 10 nM dexamethasone. As to the method:
The GR antagonist activity of the compounds is determined in a mammalian two hybrid reporter system. The ligand binding domain of GR (GR-LBD, sequence encoding amino acid 541-778) is fused to the DNA binding domain of the yeast Gal4 gene. The GR gene is cloned from a human lung cDNA library with PCR.
The assay is performed in 384 well plates: COS-7 cells (ATCC) are transfected with expression vectors for Gal-4-GR-LBD and a luciferase reporter vector containing Gal4 binding sequence (pG5-Luc). Cells are plated in 384 well plates immediately after transfection (approximately 8000 cells/well in 50 μl medium). The medium is supplemented with 3% charcoal-dextran treated fetal bovine serum (Hyclone). Twenty four hours after transfection, compounds prepared in DMSO are transferred to the cells. The cells are then stimulated with 10 nM final concentration of dexamethasone (Sigma) and incubated at 37° C. for another 24 hours before the luciferase activity is assayed with 20 μl of Bright-Glo (Promega) using a luminometer (CLIPR). The expression of luciferase is used as an indicator of dexamethasone-induced GR trans-activation. Each compound is tested in duplicates with a 12-concentration titration. IC50 values (defined as the concentration of test compound required to antagonize 50% of dexamethasone-induced GR activity) are determined from the dose-response curve.

The target in the next assay is T3, PR (Homo sapiens, UniProt P06401).
T3 sequence (P06401 1-933): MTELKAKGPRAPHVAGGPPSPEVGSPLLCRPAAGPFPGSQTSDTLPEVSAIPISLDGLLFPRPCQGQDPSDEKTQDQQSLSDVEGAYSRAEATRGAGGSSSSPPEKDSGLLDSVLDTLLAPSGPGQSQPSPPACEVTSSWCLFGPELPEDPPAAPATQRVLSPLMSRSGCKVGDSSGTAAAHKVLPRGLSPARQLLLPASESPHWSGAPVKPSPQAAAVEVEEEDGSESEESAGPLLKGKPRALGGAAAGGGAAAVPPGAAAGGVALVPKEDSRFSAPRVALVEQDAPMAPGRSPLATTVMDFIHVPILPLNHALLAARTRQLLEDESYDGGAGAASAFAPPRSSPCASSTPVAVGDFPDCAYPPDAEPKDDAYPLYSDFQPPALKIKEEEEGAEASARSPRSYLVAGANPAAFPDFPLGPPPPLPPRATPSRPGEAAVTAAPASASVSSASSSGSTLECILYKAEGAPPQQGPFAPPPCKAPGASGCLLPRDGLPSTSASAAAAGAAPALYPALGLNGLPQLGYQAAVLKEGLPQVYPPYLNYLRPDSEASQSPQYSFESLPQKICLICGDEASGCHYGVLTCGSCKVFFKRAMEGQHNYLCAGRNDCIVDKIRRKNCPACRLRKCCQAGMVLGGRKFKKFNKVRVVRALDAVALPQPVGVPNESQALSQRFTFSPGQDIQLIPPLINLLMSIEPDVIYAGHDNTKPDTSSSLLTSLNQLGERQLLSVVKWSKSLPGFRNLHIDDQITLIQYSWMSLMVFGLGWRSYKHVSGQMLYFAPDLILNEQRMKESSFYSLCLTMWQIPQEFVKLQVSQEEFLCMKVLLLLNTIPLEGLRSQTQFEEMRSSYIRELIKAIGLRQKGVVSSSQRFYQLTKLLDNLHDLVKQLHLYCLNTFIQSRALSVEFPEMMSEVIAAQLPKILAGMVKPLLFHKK
The experiment in a line: Functional assay of progesterone receptor antagonism (progesterone-induced alkaline phosphatase activity in T-47D cells). As to conditions: antagonism of PR activity induced by 3 nM progesterone. Here is the method:
The PR antagonist activity of the compounds is determined by progesterone-induced alkaline phosphatase activity in the T-47D cell line (ATCC). In the T-47D breast cancer cells, progesterone specifically induces de novo synthesis of a membrane-associated alkaline phosphatase enzyme in a time and dose-dependent manner (Di Lorenzo et al., Cancer Research, 51: 4470-4475 (1991)). The alkaline phosphatase enzymatic activity can be measured with a chemiluminescent substrate, such as CSPD® (Applied Biosystems). The assay is performed in 384 well plates. Briefly, T-47D cells are plated in 384 well plates at a density of approximately 2.5×10^4 cells/well in 50 μl medium supplemented with 10% fetal bovine serum. Twenty four hours later, the medium is aspirated. New medium that is free of phenol red and serum is added to the cells. Compounds prepared in DMSO are transferred to the cells. The cells are then stimulated with 3 nM final concentration of progesterone (Sigma) and incubated at 37° C. for another 24 hours before the alkaline phosphatase is assayed with 25 μl of CSPD® (Applied Biosystems) using a luminometer (CLIPR). The expression of alkaline phosphatase is used as an indicator of progesterone-induced PR trans-activation. Each compound is tested in duplicates with a 12-concentration titration. […]

A further assay addresses T4, AR (Homo sapiens, UniProt P10275).
T4 sequence (P10275 1-920 Q868H): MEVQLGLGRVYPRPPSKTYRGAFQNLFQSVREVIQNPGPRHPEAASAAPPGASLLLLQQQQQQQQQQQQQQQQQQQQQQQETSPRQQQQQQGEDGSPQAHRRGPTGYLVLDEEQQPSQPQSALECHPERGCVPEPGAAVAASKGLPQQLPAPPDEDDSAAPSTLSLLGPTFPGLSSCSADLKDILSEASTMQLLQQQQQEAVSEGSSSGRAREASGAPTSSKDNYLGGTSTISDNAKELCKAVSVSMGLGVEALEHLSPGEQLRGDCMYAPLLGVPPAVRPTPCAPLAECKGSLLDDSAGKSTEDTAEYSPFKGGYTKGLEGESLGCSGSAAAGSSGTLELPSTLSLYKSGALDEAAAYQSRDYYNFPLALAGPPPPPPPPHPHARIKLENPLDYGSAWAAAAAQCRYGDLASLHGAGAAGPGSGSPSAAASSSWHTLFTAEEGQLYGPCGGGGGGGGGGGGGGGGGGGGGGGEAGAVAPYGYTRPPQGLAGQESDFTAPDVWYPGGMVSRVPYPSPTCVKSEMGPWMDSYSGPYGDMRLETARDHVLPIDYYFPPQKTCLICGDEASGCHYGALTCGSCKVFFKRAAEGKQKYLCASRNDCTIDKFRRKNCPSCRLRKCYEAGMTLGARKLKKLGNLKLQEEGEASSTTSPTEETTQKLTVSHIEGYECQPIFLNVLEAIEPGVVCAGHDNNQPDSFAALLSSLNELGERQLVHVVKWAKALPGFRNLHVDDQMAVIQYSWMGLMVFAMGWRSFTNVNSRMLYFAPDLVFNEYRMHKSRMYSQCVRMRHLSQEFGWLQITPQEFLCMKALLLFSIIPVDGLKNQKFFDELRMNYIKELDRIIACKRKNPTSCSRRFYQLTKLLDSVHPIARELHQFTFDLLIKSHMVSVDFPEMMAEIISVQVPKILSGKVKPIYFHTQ
The experiment in a line: Functional assay of androgen receptor antagonism (MMTV luciferase reporter in MDA-kb2 cells, dihydrotestosterone-stimulated). The following applies: antagonism of AR trans-activation induced by 0.3 nM dihydrotestosterone. Here is the method:
The AR antagonist activity of the compounds is determined with the MDA-Kb2 cell line (ATCC), which stably expresses the MMTV luciferase reporter. The MMTV promoter is a mouse mammary tumor virus promoter that contains androgen receptor response elements. […] Upon stimulation with AR ligands, such as dihydrotestosterone, the MMTV luciferase reporter can be activated.
The assay is performed in 384 well plates. Briefly, MDA-kb2 cells are plated in 384 well plates at a density of approximately 2.4×10^4 cells/well in 50 μl medium. The medium is supplemented with 5% charcoal-dextran treated fetal bovine serum (Hyclone). Twenty four hours later, compounds prepared in DMSO are transferred to the cells. The cells are then stimulated with 0.3 nM final concentration of dihydrotestosterone (Sigma) and incubated at 37° C. for another 24 hours before the luciferase activity is assayed with 20 μl of Bright-Glo (Promega) using a luminometer (CLIPR). The expression of luciferase is used as an indicator of dihydrotestosterone-induced AR trans-activation. Each compound is tested in duplicates with a 12-concentration titration. IC50 values (defined as the concentration of test compound required to antagonize 50% of dihydrotestosterone-induced AR activity) are determined from the dose-response curve.

SMILES strings stand for the structures.

As usually defined, the IC50 is the concentration that inhibits the measured activity by half. The low end stands for inhibition by little substance, the high end for a need for much substance.

Consider `Cc1c(-c2csc(-c3ccccc3C(F)(F)F)n2)ccc2c1NC(=O)CO2` [5-Methyl-6-[2-(2-trifluoromethyl-phenyl)-thiazol-4-yl]-4H-benzo[1,4]oxazin-3-one], for which the IC50 was 162 nM on MR, greater than 10000 nM at GR, greater than 20000 nM at PR and 52 nM on AR.

As for `Cc1cccc(-c2ccc3c(c2C)NC(=O)CO3)c1` [5-Methyl-6-m-tolyl-4H-benzo[1,4]oxazin-3-one], the IC50 is 47 nM at MR and 22 nM against PR.

For the compound `Cc1ccccc1/C=C/c1ccc2c(c1)NC(=O)CO2` [6-(2-o-tolyl-vinyl)-4H-benzo[1,4]oxazin-3-one], the IC50 is 54 nM on MR and 138 nM against AR.

For the compound `CC(=O)Oc1ccc(CCc2cc(C)c3c(c2)NC(=O)CO3)c(C)c1` [Acetic acid 3-methyl-4-[2-(8-methyl-3-oxo-3,4-dihydro-2H-benzo[1,4]oxazin-6-yl)-ethyl]-phenyl ester], the IC50 on MR was determined as 1.3 nM; at GR, 210 nM.

On to `CC(=O)Oc1ccc(CCc2ccc3c(c2)NC(=O)CO3)c(C)c1` [acetic acid 3-methyl-4-[2-(3-oxo-3,4-dihydro-2H-benzo[1,4]oxazin-6-yl)-ethyl]-phenyl ester], for which, on MR, the IC50 is less than 2 nM.
